This assay deals with DGKα (Homo sapiens (Human), UniProt P23743). Briefly: Human DGKα kinase activity inhibition assay (ADP-Glo). As to conditions: recombinant full-length human DGKα, 55 μM ATP, 7 μM 1,2-dioleoyl-sn-glycerol, read-out: IC50 values of examples in in vitro human DGKa kinase activity inhibition assays. The class given is biochemical. The method in brief:
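Recombinant full-length human DGKα (C-terminal FLAG, from insect cells) phosphorylated 1,2-dioleoyl-sn-glycerol presented in octyl-glucopyranoside micelles. ADP formed was quantified by ADP-Glo luminescence. Compounds were added from 100-fold DMSO stocks.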
Background: ADP-Glo first removes unused ATP, then detects ADP through luciferase.
Sequence of DGKα (P23743 other isoform, or with tags, fused parts or gaps): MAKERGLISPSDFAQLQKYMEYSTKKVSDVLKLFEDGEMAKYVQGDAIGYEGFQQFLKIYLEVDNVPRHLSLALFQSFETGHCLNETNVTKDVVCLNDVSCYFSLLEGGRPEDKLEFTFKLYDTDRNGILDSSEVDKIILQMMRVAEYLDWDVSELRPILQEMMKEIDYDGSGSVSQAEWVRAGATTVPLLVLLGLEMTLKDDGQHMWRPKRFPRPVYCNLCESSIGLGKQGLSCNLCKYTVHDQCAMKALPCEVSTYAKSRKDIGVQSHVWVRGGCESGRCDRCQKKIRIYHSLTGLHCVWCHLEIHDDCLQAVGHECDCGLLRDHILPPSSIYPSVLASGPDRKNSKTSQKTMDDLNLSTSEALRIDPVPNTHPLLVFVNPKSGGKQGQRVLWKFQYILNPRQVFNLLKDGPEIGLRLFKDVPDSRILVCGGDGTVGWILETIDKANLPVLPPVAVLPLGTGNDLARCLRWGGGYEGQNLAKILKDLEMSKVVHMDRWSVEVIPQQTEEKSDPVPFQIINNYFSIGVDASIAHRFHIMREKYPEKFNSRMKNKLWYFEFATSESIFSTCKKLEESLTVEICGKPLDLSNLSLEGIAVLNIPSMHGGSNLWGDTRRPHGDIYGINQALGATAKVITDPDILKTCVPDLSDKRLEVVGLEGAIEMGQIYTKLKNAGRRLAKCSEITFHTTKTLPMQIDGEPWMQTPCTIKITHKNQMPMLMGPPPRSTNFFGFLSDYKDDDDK
As for `CNC(=O)c1c(N2CCC(c3nc4ccccc4s3)CC2)c2ccccc2n(C)c1=O` [Example 145, 4-[4-(1,3-benzothiazol-2-yl)piperidin-1-yl]-N,1-dimethyl-2-oxo-1,2-dihydroquinoline-3-carboxamide], the IC50 is 41 nM.

Turning to `COc1cc2c(cc1Br)c(N1CCC(F)(c3nc4cc(C)ccc4o3)CC1)c(C#N)c(=O)n2C` [Example 420, 6-bromo-4-[4-fluoro-4-(5-methyl-1,3-benzoxazol-2-yl)piperidin-1-yl]-7-methoxy-1-methyl-2-oxo-1,2-dihydroquinoline-3-carbonitrile], the IC50 came to 0.6 nM. Under `COc1ccc(C2CCN(c3c(C#N)c(=O)n(C)c4ccccc34)CC2)cn1` [Example 142, 4-[4-(6-methoxypyridin-3-yl)piperidin-1-yl]-1-methyl-2-oxo-1,2-dihydroquinoline-3-carbonitrile] stands 58 nM; under `Cn1c(=O)c(C#N)c(N2CCC(c3nc4ccc(Cl)cc4o3)CC2)c2ccc(Br)cc21` [Example 32, 7-bromo-4-[4-(6-chloro-1,3-benzoxazol-2-yl)piperidin-1-yl]-1-methyl-2-oxo-1,2-dihydroquinoline-3-carbonitrile], 6 nM.

`Cc1ccc2oc(C3CCN(c4c(C(N)=O)c(=O)n(C)c5cc(F)c(Br)cc45)CC3)nc2c1` [Example 563, 6-bromo-7-fluoro-1-methyl-4-[4-(5-methyl-1,3-benzoxazol-2-yl)piperidin-1-yl]-2-oxo-1,2-dihydroquinoline-3-carboxamide]: the IC50 was determined as 1.7 nM. Take `Cc1ccc2oc(C3CCN(c4c(C(N)=O)c(=O)n(C)c5ccc(Br)cc45)CC3)nc2c1` [Example 492, 6-bromo-1-methyl-4-[4-(5-methyl-1,3-benzoxazol-2-yl)piperidin-1-yl]-2-oxo-1,2-dihydroquinoline-3-carboxamide]: the IC50 was 1.5 nM. Turning to `Cc1ccc2oc(C3(C)CCN(c4c(C#N)c(=O)n(C)c5cc(C(F)(F)F)ccc45)CC3)nc2c1` [Example 290, 1-methyl-4-[4-methyl-4-(5-methyl-1,3-benzoxazol-2-yl)piperidin-1-yl]-2-oxo-7-(trifluoromethyl)-1,2-dihydroquinoline-3-carbonitrile], the IC50 worked out at 10 nM. Under `Cc1ccc2nc(C3(C)CCN(c4c(C#N)c(=O)n(C)c5ccc(C)cc45)CC3)oc2c1` [Example 188, 1,6-dimethyl-4-[4-methyl-4-(6-methyl-1,3-benzoxazol-2-yl)piperidin-1-yl]-2-oxo-1,2-dihydroquinoline-3-carbonitrile] stands 2.6 nM; under `COc1ccc(C2CCN(c3c(C#N)c(=O)n(C)c4cc(N5CCCC5=O)ccc34)CC2)cc1` [Example 96, 4-[4-(4-methoxyphenyl)piperidin-1-yl]-1-methyl-2-oxo-7-(2-oxopyrrolidin-1-yl)-1,2-dihydroquinoline-3-carbonitrile], 20 nM.

Consider `Cc1ccc2oc(C3(C)CCN(c4c(C#N)c(=O)n(C)c5ccc(Br)cc45)CC3)nc2c1` [Example 171, 6-bromo-1-methyl-4-[4-methyl-4-(5-methyl-1,3-benzoxazol-2-yl)piperidin-1-yl]-2-oxo-1,2-dihydroquinoline-3-carbonitrile], for which the IC50 is 1.5 nM. Under `Cn1c(=O)c(C#N)c(N2CCC(c3nc4ccccc4s3)CC2)c2cccc(F)c21` [Example 154, 4-[4-(1,3-benzothiazol-2-yl)piperidin-1-yl]-8-fluoro-1-methyl-2-oxo-1,2-dihydroquinoline-3-carbonitrile] stands 34 nM; under `COC1(c2cc3ccccc3s2)CCN(c2c(C(N)=O)c(=O)n(C)c3ccccc23)CC1` [Example 455, 4-[4-(1-benzothiophen-2-yl)-4-methoxypiperidin-1-yl]-1-methyl-2-oxo-1,2-dihydroquinoline-3-carboxamide], 1.9 nM; under `Cc1ccc2oc(C3CCN(c4c(C(N)=O)c(=O)n(C)c5ccc(C(N)=O)cc45)CC3)nc2c1` [Example 499, 1-methyl-4-[4-(5-methyl-1,3-benzoxazol-2-yl)piperidin-1-yl]-2-oxo-1,2-dihydroquinoline-3,6-dicarboxamide], 74 nM. The same measure for `C=C(c1ccc2c(c1)c(N1CCC(c3nc4cc(C)ccc4o3)CC1)c(C#N)c(=O)n2C)C(F)(F)F` [Example 411, 1-methyl-4-[4-(5-methyl-1,3-benzoxazol-2-yl)piperidin-1-yl]-2-oxo-6-(3,3,3-trifluoroprop-1-en-2-yl)-1,2-dihydroquinoline-3-carbonitrile]: 5.1 nM; for `COCCc1ccc2nc(C3CCN(c4c(C#N)c(=O)n(C)c5ccccc45)CC3)oc2c1` [Example 284, 4-{4-[6-(2-methoxyethyl)-1,3-benzoxazol-2-yl]piperidin-1-yl}-1-methyl-2-oxo-1,2-dihydroquinoline-3-carbonitrile]: 9.3 nM; for `COc1ccc2c(c1)c(N1CCC(C)(c3nc4ccc(C)cc4o3)CC1)c(C#N)c(=O)n2C` [Example 191, 6-methoxy-1-methyl-4-[4-methyl-4-(6-methyl-1,3-benzoxazol-2-yl)piperidin-1-yl]-2-oxo-1,2-dihydroquinoline-3-carbonitrile]: 7 nM. The same measure for `Cc1ccccc1C1CCN(c2c(C#N)c(=O)n(C)c3ccccc23)CC1` [Example 82, 1-methyl-4-[4-(2-methylphenyl)piperidin-1-yl]-2-oxo-1,2-dihydroquinoline-3-carbonitrile]: 11 nM; for `Cn1c(=O)c(C#N)c(N2CCC(c3nc4ccccc4s3)CC2)c2ccc(Br)cc21` [Example 33, 4-[4-(1,3-benzothiazol-2-yl)piperidin-1-yl]-7-bromo-1-methyl-2-oxo-1,2-dihydroquinoline-3-carbonitrile]: 6.2 nM. With `COc1cc2c(cc1C)c(N1CCC(c3nc4cc(C)ccc4o3)CC1)c(C#N)c(=O)n2C` [Example 419, 7-methoxy-1,6-dimethyl-4-[4-(5-methyl-1,3-benzoxazol-2-yl)piperidin-1-yl]-2-oxo-1,2-dihydroquinoline-3-carbonitrile], the IC50 turned out to be 4.6 nM. The same measure for `Cc1ccccc1-c1noc(C2CCN(c3c(C(N)=O)c(=O)n(C)c4ccccc34)CC2)n1` [Example 458, 1-methyl-4-{4-[3-(2-methylphenyl)-1,2,4-oxadiazol-5-yl]piperidin-1-yl}-2-oxo-1,2-dihydroquinoline-3-carboxamide]: 4.3 nM. Regarding `Cn1c(=O)c(C#N)c(N2CCC(c3ccc(C(F)(F)F)cc3)CC2)c2ccccc21` [Example 61, 1-methyl-2-oxo-4-{4-[4-(trifluoromethyl)phenyl]piperidin-1-yl}-1,2-dihydroquinoline-3-carbonitrile], the half-maximal inhibitory concentration (IC50) was found to be 37 nM. Regarding `Cn1c(=O)c(C#N)c(N2CCC(c3ccc(Br)cc3)CC2)c2ccccc21` [Example 88, 4-[4-(4-bromophenyl)piperidin-1-yl]-1-methyl-2-oxo-1,2-dihydroquinoline-3-carbonitrile], the IC50 was determined as 47 nM. Under `COc1ccc2c(c1)c(N1CCC(c3nc(-c4cccc(C)c4)no3)CC1)c(C(N)=O)c(=O)n2C` [Example 520, 6-methoxy-1-methyl-4-{4-[3-(3-methylphenyl)-1,2,4-oxadiazol-5-yl]piperidin-1-yl}-2-oxo-1,2-dihydroquinoline-3-carboxamide] stands 37 nM; under “4-[4-(1,3-benzoxazol-5-yl)piperidin-1-y-1-methyl-2-oxo-1,2-dihydroquinoline-3-carbonitrile [Example 67]”, 85 nM.

As a reminder, the IC50 is the concentration needed to halve the response being measured.

For the origin of these results see patent publication US11998539B2, “Substituted aminoquinolones as DGKalpha inhibitors for immune activation” (Bayer Aktiengesellschaft, priority 2019, dated 2024).
